Laboratory results published in patent publication US20230074545A1, “TREATMENT OF CANCER WITH CDK12/13 INHIBITORS” (Kinnate Biopharma Inc., priority 2019, published 2023).

Columns and labels:
Assay in all cases: Radiometric kinase panel
Type in all cases: biochemical
TTK = target: T1, TTK (Homo sapiens, UniProt P33981)
T1 construct: either as full-length or enzymatically active fragments; purchased ProQinase GmbH (Reaction Biology); host or cells: Sf9 insect cells or E. coli
In short: (§1)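 Activity was measured radiometrically from [gamma-33P]-ATP incorporation into substrate. The kinases were recombinant human GST- or His-tagged proteins, full-length or active fragments, expressed in Sf9 or E. coli. Compound in 10% DMSO was added before the enzyme/substrate mix, which started the reaction.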

DYRK3 = target: T2, DYRK3 (Homo sapiens, UniProt O43781)
T2 construct: either as full-length or enzymatically active fragments; purchased ProQinase GmbH (Reaction Biology)
In short: as §1

RIPK4 = target: T3, RIPK4 (Homo sapiens, UniProt P57078)
T3 construct: either as full-length or enzymatically active fragments; purchased ProQinase GmbH (Reaction Biology)
T3 sequence (P57078 whole entry, the tested form may be a part): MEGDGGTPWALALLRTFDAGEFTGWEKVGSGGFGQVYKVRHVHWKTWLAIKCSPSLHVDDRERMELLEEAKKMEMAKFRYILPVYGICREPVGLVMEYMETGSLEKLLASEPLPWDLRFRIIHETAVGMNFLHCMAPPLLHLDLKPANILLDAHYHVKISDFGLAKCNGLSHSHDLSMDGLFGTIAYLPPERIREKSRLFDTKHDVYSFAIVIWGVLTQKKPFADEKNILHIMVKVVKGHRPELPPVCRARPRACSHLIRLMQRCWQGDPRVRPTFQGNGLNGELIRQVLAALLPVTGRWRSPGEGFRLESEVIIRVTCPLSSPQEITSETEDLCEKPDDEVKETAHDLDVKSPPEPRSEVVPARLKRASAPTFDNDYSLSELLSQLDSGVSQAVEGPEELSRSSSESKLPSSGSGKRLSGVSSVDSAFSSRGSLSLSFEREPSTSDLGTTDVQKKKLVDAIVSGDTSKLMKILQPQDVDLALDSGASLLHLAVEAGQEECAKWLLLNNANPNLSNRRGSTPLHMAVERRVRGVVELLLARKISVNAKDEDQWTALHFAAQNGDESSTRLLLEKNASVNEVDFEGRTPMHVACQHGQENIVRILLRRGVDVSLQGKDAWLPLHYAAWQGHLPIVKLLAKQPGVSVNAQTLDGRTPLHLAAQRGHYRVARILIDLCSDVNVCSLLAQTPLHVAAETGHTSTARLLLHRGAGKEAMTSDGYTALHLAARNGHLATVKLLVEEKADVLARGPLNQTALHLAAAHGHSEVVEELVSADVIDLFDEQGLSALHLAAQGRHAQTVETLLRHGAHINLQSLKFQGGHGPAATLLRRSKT
In short: as §1

HIPK1 = target: T4, HIPK1 (Homo sapiens, UniProt Q86Z02)
T4 construct: either as full-length or enzymatically active fragments; purchased ProQinase GmbH (Reaction Biology); host or cells: Sf9 insect cells or E. coli (not specified per kinase)
T4 sequence (Q86Z02 whole entry, the tested form may be a part): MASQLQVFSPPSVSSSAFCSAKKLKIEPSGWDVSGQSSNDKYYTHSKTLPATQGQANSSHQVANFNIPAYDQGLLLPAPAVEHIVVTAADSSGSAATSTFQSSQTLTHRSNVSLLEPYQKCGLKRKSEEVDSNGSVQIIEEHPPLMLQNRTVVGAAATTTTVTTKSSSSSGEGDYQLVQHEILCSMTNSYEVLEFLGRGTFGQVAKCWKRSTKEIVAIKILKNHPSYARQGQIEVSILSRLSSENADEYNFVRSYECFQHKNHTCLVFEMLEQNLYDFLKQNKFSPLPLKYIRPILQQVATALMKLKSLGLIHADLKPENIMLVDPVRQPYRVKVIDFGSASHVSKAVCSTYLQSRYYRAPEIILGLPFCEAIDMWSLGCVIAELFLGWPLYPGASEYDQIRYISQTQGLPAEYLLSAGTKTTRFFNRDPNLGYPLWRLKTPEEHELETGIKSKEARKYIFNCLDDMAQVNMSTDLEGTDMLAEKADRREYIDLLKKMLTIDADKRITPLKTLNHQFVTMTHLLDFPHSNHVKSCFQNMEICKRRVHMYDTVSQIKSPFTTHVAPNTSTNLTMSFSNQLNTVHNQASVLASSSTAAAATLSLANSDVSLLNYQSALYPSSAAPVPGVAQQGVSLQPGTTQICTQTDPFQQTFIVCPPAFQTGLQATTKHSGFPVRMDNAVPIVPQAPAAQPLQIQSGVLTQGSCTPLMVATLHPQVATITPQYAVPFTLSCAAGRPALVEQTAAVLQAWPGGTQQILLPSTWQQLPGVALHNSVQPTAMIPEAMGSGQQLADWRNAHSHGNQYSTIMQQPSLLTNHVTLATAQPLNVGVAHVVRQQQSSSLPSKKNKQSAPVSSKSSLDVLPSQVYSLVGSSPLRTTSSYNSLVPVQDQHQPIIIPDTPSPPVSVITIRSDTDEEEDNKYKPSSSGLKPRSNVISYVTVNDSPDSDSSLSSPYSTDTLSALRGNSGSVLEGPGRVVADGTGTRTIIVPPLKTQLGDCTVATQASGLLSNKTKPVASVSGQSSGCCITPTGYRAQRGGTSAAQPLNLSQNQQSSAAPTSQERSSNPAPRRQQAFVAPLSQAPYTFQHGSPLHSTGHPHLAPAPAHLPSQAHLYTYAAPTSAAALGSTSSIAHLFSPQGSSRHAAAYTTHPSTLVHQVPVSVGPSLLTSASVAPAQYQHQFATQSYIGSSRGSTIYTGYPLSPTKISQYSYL
In short: as §1

YES = target: T5, YES (Homo sapiens, UniProt P07947)
T5 construct: either as full-length or enzymatically active fragments; purchased ProQinase GmbH (Reaction Biology)
In short: as §1

ACVR2A = target: T6, ACVR2A (Homo sapiens, UniProt P27037)
T6 construct: either as full-length or enzymatically active fragments; purchased ProQinase GmbH (Reaction Biology)
In short: as §1

MST3 = target: T7, MST3 (Homo sapiens, UniProt Q9Y6E0)
T7 construct: either as full-length or enzymatically active fragments; purchased ProQinase GmbH (Reaction Biology)
In short: as §1

PLK1 = target: T8, PLK1 (Homo sapiens, UniProt P53350)
T8 construct: either as full-length or enzymatically active fragments; purchased ProQinase GmbH (Reaction Biology)
T8 sequence (P53350 whole entry, the tested form may be a part): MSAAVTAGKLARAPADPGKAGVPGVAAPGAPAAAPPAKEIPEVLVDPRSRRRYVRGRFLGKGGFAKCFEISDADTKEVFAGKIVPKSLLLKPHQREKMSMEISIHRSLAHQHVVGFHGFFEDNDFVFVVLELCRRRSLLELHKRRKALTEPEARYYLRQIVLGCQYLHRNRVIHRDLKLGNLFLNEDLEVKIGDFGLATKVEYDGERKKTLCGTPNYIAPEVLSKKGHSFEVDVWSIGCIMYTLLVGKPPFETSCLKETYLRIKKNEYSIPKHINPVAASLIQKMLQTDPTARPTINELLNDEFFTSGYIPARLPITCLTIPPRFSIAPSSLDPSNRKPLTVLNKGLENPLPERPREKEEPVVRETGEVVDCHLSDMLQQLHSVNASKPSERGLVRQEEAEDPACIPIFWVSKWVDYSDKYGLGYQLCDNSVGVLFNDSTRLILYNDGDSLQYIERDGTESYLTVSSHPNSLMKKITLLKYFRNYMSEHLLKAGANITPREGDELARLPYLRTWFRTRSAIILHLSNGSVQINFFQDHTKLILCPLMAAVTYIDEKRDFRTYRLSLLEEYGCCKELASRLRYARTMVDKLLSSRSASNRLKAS
In short: as §1

FRK = target: T9, FRK (Homo sapiens, UniProt P42685)
T9 construct: either as full-length or enzymatically active fragments; purchased ProQinase GmbH (Reaction Biology)
In short: as §1

MARK1 = target: T10, MARK1 (Homo sapiens, UniProt Q9P0L2)
T10 construct: purchased ProQinase GmbH (Reaction Biology)
In short: as §1

PAK4 = target: T11, PAK4 (Homo sapiens, UniProt O96013)
T11 construct: either as full-length or enzymatically active fragments; purchased ProQinase GmbH (Reaction Biology)
T11 sequence (O96013 whole entry, the tested form may be a part): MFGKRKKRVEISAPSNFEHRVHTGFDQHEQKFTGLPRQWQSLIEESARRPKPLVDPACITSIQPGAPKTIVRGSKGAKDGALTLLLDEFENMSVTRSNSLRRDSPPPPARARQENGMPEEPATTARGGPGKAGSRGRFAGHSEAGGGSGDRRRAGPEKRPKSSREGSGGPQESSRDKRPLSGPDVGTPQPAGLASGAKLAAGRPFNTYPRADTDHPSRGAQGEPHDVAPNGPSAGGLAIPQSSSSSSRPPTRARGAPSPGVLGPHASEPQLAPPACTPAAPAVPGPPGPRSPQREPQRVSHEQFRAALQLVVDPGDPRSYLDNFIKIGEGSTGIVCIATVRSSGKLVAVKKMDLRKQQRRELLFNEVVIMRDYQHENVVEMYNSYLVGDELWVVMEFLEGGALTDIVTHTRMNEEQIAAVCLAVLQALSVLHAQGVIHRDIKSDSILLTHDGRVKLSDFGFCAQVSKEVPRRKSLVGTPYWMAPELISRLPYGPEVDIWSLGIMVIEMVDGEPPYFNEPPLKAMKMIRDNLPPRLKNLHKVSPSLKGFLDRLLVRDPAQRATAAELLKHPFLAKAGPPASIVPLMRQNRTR
In short: as §1

MEK2 = target: T12, MEK2 (Homo sapiens, UniProt P36507)
T12 construct: either as full-length or enzymatically active fragments; purchased ProQinase GmbH (Reaction Biology)
In short: as §1

MAP4K5 = target: T13, MAP4K5 (Homo sapiens, UniProt Q9Y4K4)
T13 construct: purchased ProQinase GmbH (Reaction Biology)
In short: as §1

CDC42BPA = target: T14, CDC42BPA (Homo sapiens, UniProt Q5VT25)
T14 construct: either as full-length or enzymatically active fragments; purchased ProQinase GmbH (Reaction Biology); host or cells: Sf9 insect cells or E. coli
T14 sequence (Q5VT25 whole entry, the tested form may be a part): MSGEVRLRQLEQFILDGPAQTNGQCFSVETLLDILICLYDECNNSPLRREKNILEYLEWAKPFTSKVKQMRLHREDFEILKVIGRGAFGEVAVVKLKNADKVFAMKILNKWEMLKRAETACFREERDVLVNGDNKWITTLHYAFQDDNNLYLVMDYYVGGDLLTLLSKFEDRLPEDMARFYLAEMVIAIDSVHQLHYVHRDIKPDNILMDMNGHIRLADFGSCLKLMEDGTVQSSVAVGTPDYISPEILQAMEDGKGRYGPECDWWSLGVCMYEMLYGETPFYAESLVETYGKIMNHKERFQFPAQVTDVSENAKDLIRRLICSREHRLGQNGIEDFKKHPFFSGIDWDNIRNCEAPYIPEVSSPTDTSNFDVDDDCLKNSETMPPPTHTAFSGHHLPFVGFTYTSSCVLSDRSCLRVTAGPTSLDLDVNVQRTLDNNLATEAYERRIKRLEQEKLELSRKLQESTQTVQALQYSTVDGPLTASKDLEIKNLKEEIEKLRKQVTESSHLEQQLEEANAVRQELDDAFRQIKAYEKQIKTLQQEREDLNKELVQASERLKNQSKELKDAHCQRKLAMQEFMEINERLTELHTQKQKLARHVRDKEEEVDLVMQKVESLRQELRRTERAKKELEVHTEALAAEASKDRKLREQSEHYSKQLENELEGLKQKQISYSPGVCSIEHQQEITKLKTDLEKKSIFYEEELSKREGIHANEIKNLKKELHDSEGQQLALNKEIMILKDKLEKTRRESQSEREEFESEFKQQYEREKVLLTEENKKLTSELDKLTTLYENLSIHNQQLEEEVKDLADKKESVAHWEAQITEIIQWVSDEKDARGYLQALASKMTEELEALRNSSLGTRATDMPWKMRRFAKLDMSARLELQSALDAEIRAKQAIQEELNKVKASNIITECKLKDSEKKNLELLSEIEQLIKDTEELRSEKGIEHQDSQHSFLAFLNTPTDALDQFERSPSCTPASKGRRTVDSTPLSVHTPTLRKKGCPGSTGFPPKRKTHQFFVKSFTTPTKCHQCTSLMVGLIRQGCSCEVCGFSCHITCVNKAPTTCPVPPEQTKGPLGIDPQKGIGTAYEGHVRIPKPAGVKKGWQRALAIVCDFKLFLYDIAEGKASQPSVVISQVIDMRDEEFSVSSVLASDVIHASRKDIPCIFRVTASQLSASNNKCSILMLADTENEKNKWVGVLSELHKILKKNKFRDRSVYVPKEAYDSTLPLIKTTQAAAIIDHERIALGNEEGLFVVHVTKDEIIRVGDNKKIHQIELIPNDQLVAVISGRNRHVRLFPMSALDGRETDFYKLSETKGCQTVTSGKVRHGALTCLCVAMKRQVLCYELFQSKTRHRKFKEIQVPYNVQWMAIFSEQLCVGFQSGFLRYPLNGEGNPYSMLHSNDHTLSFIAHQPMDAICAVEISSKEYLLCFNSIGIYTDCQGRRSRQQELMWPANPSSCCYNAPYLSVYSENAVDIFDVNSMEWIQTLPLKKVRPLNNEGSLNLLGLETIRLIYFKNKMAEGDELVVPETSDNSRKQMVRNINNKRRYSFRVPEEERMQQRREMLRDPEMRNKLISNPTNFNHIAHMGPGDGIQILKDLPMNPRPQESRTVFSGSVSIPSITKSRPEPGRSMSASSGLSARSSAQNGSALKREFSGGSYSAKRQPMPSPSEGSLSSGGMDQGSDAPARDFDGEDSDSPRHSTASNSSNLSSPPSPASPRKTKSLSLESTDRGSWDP
In short: as §1

INSRR = target: T15, INSRR (Homo sapiens, UniProt P14616)
T15 construct: either as full-length or enzymatically active fragments; purchased ProQinase GmbH (Reaction Biology)
In short: as §1

LTK = target: T16, LTK (Homo sapiens, UniProt P29376)
T16 construct: purchased ProQinase GmbH (Reaction Biology); host or cells: Sf9 insect cells or E. coli (not specified per kinase)
In short: as §1

DYRK4 = target: T17, DYRK4 (Homo sapiens, UniProt Q9NR20)
T17 construct: either as full-length or enzymatically active fragments; purchased ProQinase GmbH (Reaction Biology)
In short: as §1

ACVR1B = target: T18, ACVR1B (Homo sapiens, UniProt P36896)
T18 construct: purchased ProQinase GmbH (Reaction Biology); host or cells: Sf9 insect cells or E. coli (not specified per kinase)
In short: as §1

SRC = target: T19, SRC (Homo sapiens, UniProt P12931)
T19 construct: either as full-length or enzymatically active fragments; purchased ProQinase GmbH (Reaction Biology)
In short: as §1

CDK20/CycH = target: T20, CDK20/CycH (Homo sapiens, UniProt Q8IZL9)
T20 construct: purchased ProQinase GmbH (Reaction Biology)
In short: as §1

MAP4K2 = target: T21, MAP4K2 (Homo sapiens, UniProt Q12851)
T21 construct: purchased ProQinase GmbH (Reaction Biology)
In short: as §1

NEK4 = target: T22, NEK4 (Homo sapiens, UniProt P51957)
T22 construct: purchased ProQinase GmbH (Reaction Biology)
In short: as §1

MYLK3 = target: T23, MYLK3 (Homo sapiens, UniProt Q32MK0)
T23 construct: either as full-length or enzymatically active fragments; purchased ProQinase GmbH (Reaction Biology)
In short: as §1

ACVRL1 = target: T24, ACVRL1 (Homo sapiens, UniProt P37023)
T24 construct: either as full-length or enzymatically active fragments; purchased ProQinase GmbH (Reaction Biology)
In short: as §1

DAPK3 = target: T25, DAPK3 (Homo sapiens, UniProt O43293)
T25 construct: purchased ProQinase GmbH (Reaction Biology)
In short: as §1

GRK6 = target: T26, GRK6 (Homo sapiens, UniProt P43250)
T26 construct: purchased ProQinase GmbH (Reaction Biology)
In short: as §1

NEK2 = target: T27, NEK2 (Homo sapiens, UniProt P51955)
T27 construct: either as full-length or enzymatically active fragments; purchased ProQinase GmbH (Reaction Biology)
In short: as §1

C=CC(=O)Nc1ccc(C(=O)N2CC[C@@H](Nc3ncc(C#N)cn3)C2)cc1 [Compound 4, (R)-N-(4-(3-((5-cyanopyrimidin-2-yl)amino)pyrrolidine-1-carbonyl)phenyl)acrylamide]
inhibition at 1 µM (TTK): 12%
inhibition at 1 µM (DYRK3): -3%
inhibition at 1 µM (RIPK4): -3%
inhibition at 1 µM (HIPK1): 8%
inhibition at 1 µM (YES): -5%
inhibition at 1 µM (ACVR2A): 7%
inhibition at 1 µM (MST3): 3%
inhibition at 1 µM (PLK1): 7%
inhibition at 1 µM (FRK): -6%
inhibition at 1 µM (MARK1): 0%
inhibition at 1 µM (PAK4): -3%
inhibition at 1 µM (MEK2): 3%
inhibition at 1 µM (MAP4K5): 0%
inhibition at 1 µM (CDC42BPA): -16%
inhibition at 1 µM (INSRR): 5%
inhibition at 1 µM (LTK): 1%
inhibition at 1 µM (DYRK4): -7%
inhibition at 1 µM (ACVR1B): 1%
inhibition at 1 µM (SRC): -5%
inhibition at 1 µM (CDK20/CycH): -2%
inhibition at 1 µM (MAP4K2): -1%
inhibition at 1 µM (NEK4): -1%
inhibition at 1 µM (MYLK3): 4%
inhibition at 1 µM (ACVRL1): 3%
inhibition at 1 µM (DAPK3): 0%
inhibition at 1 µM (GRK6): 0%
inhibition at 1 µM (NEK2): -8%
